In patent publication US20180136242A1 (Autotelic LLC, priority 2014, published 2018):

B1: 3C6 (antibody, V domains shown)
VH: EVQLQESGPSLVKPSQTLSLTCSVTGDSITSGYWNWIRKFPGNRLEYMGYISYSGSTYYNPSLKSRISITRDTSKNQYYLHLTSVTTEDTATYYCAQGDGAYWGQGTTLTVSS
VL: DVVMTQTPLSLPVSLGDQASISCRSRQSLVHSNGNTYLHWYLQKPGQSPKLLIYKVSNRFSGVPDRFSGSGSGTEFTLEISRVEAEDLGVYFCSQSTHVPPTFGGGTKLEIK
B2: 8A10: anti-taxane IgG2a mouse monoclonal antibody; variable regions SEQ ID NOS: 2 and 4 (antibody, V domains shown)
VL: DIVMTQSQKFMSITLGERVSITCKPSQNVGSAVTWWQQKPGQSPKLLIYSASNRYTGVPDRFTGSGSGTDFTLTISNVQSEDLADYFCQQYSSYPYTFGGGTKLEIKR
VH: EVQLQQSGPELVKPGASVKISCKASGYTFTDSTMNWVKQSHGKSLEWIGEIDPNNGGTNYNQKFKGKATLTVDKSSSTAYMELRSLTSEDSAVYYCARGVWGQGTTLTVSS
modifications: mouse IgG2a constant regions

How the values were obtained:
[1] = system: 3C6 anti TAXOL IgG2a,k antibody; assay: Paclitaxel antibody cross-reactivity, IC50 towards taxanes (3C6); assay type: binding, mouse; details: antibody 3C6; read-out: IC50 towards taxane, 3C6
From the text: (§1) The antibodies of the invention were generated by immunizing mice with either TAXOL® or baccatin conjugated to KLH. The antibodies are summarized as: 3C6 anti TAXOL® IgG2a,k, 3H5 anti-baccatin III IgG1, 8A10 anti-taxane IgG2a. Cross-reactivity profile of 3C6, 3H5, and 8A10 antibodies are shown by their IC50 values towards various taxanes in Table 1.

[2] = system: 3H5 anti-baccatin III IgG1 antibody; assay: Paclitaxel antibody cross-reactivity, IC50 towards taxanes (3H5); assay type: binding, mouse; details: antibody 3H5; read-out: IC50 towards taxane, 3H5
From the text: as §1

[3] = system: 8A10 anti-taxane IgG2a antibody; assay: Paclitaxel antibody cross-reactivity, IC50 towards taxanes (8A10); assay type: binding, mouse; details: antibody 8A10
From the text: as §1

BSA-paclitaxel antigen = BSA-paclitaxel antigen (Bos taurus, UniProt P02769); assay: Direct binding ELISA of intact IgGs to BSA-paclitaxel antigen (FIG. 4); details: read-out: apparent Kd
Description: FIG. 4 is a graph illustrating direct binding of intact IgGs (8A10 and 3C6) of the invention to a BSA-paclitaxel antigen on an ELISA.
Antibody affinity. 50 μL of BSA-paclitaxel antigen at a concentration of 3.5 μg/mL in 1× PBS was bound to a plate and incubated at 4° C. overnight. The plate was washed four ties with PBS/0.05% Tween 20. The plate was blocked for 2 hours with 1% BSA in PBS/0.05% Tween 20 at room temperature. The plate was washed four ties with PBS/0.05% Tween 20. 50 μL of antibody sample (8A10 and 3C6) was bound (start at 300 nM and titer down by 3s). The plate was washed four times with PBS/0.05% Tween 20. 50 μL of goat anti mIgG horseradish peroxidase (1:5000 dilution) was bound and then 50 μL of substrate solution TMB was added and the color allowed to develop. The reaction was stopped with 50 μL 1M HCl and the optical density was read at 450 nm.

BSA-paclitaxel (BSA-Ag) = BSA-paclitaxel (BSA-Ag) (Bos taurus, UniProt P02769); assay: Biacore 3000 SPR kinetic analysis, antigen on the chip; assay type: binding; details: for Dissociation rate constant (kd) / ka: 25° C.
Description: In this example, a method for determining antibody properties is described. The methods were carried out by Precision Antibody, Inc. (Columbia, Md.) using a Biacore Assay.
Binding experiments were performed on a Biacore 3000 instrument (GE, Pittsburgh, Pa.) at 25° C. Approximately 13,000 RU of anti-BSA ab (Life Technologies, A11133, lot 1637270) was directly immobilized on flow cell 2 of CM5 chip by amine coupling (EDC/NHS). 110-120 RU of BSA-paclitaxel (BSA-Ag) was captured. Flow cell 1 was treated the same way but without the ligand and used as a blank surface for reference subtraction. The unoccupied sites were blocked with 1 M ethanol amine. Analytes Ab 1 (8A10) and Ab2 (3C6) were flowed over the chip at variable concentrations. Binding of antigen to the antibodies was monitored in real time to obtain on (ka) and off (kd) rates. The equilibrium constant (KD) was calculated from the observed ka and kd.
Full kinetic analysis was performed using analyte concentrations as indicated with 2-fold serial dilutions. The starting concentration was 200 nM, followed by 100, 50, 25, 12.5, and 0 nM. The 100 nM concentration was run in duplicates to confirm the reproducibility of the assay.
The assay buffer was 10 mM HEPES buffer (pH 7.4), 150 mM NaCl, 3 mM EDTA, 0.05% P20 (polyoxyethylenesorbitan). The regeneration buffer was 10 mM Glycine buffer (pH 2.0). The conjugation buffer was 10 mM sodium acetate buffer (pH 5.0). The flow rate used for capturing the ligand was 1 μL/min. The flow rate for kinetics analysis was 50 μL/min.
Chi square (χ^2) analysis was carried out between the actual sensorgram and the sensorgram generated from the BlAnalysis software to determine the accuracy of the analysis. A χ^2 value within 1-2 is considered significant (accurate) and below 1 is highly significant (highly accurate).

BSA-paclitaxel [4] = target: T1, BSA-paclitaxel (Bos taurus, UniProt P02769); assay: Biacore 3000 SPR, antibody on the chip; assay type: binding; details: Biacore 3000, antibody on the chip (3C6: single point)
BSA-paclitaxel [5] = target: T1, BSA-paclitaxel; assay: Biacore T-200 SPR, antibody on the chip; assay type: binding; details: Biacore T-200, antibody on the chip
[6] = BSA-Ag (110RU) ligand, full kinetic analysis
[7] = BSA-Ag (110RU) ligand, calculated from ka and kd
[8] = Biacore 3000, antigen on the chip

Sequence of BSA-paclitaxel (BSA-Ag) (P02769 25-607): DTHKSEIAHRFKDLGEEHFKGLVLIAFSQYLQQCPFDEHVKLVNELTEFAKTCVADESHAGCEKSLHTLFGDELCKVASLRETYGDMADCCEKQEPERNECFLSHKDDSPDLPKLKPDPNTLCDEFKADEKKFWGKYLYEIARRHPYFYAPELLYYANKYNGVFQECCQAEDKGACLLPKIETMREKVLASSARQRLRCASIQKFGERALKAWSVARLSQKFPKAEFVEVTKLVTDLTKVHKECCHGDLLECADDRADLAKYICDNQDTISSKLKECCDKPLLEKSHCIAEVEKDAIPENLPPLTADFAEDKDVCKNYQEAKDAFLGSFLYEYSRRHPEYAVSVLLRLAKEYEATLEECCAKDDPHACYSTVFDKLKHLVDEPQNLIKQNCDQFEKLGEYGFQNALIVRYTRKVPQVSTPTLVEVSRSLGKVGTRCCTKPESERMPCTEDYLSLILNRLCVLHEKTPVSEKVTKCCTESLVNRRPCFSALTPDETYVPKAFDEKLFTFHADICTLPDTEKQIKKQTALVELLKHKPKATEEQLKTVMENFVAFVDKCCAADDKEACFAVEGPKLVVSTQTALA
T1 sequence (P02769 25-607): as above
Sequence of BSA-paclitaxel antigen (P02769 25-607): as above

| Molecule | IC50 [1] [nM] | IC50 [2] [nM] | IC50 [3] [nM] | also measured |
| --- | --- | --- | --- | --- |
| CC(=O)O[C@H]1C(=O)[C@]2(C)[C@H](O)C[C@H]3OC[C@@]3(OC(C)=O)[C@H]2[C@H](OC(=O)c2ccccc2)[C@]2(O)C[C@H](O)C(C)=C1C2(C)C [baccatin V] | > 460 | 10 | 10 |  |
| CC(=O)OC[C@@]1(O)[C@H]2[C@H](OC(=O)c3ccccc3)[C@]3(O)C[C@H](OC(=O)[C@H](O)[C@@H](NC(=O)c4ccccc4)c4ccccc4)C(C)=C([C@@H](OC(C)=O)C(=O)[C@]2(C)[C@@H](O)C[C@@H]1O)C3(C)C [20-acetoxy-4-deacetyl-5-epi-20,O-secotaxol] | > 310 | > 310 | > 293 |  |
| CC(=O)O[C@@]12CO[C@@H]1C[C@H](O)[C@@]1(C)C(=O)[C@H](O)C3=C(C)[C@@H](OC(=O)[C@H](O)[C@@H](NC(=O)c4ccccc4)c4ccccc4)C[C@@](O)([C@@H](OC(=O)c4ccccc4)[C@H]21)C3(C)C [7-epi-10-deacetyltaxol] | 25 | > 333 | 15 |  |
| C/C=C(\C)C(=O)N[C@@H](c1ccccc1)[C@@H](O)C(=O)O[C@H]1C[C@@]2(O)[C@@H](OC(=O)c3ccccc3)[C@@H]3[C@]4(OC(C)=O)CO[C@@H]4C[C@H](O)[C@@]3(C)C(=O)[C@H](OC(C)=O)C(=C1C)C2(C)C [cephalomannine] | 220 | > 325 | 8 |  |
| CC(=O)O[C@H]1C(=O)[C@@]2(C)[C@H]([C@H](OC(=O)c3ccccc3)[C@]3(O)C[C@H](OC(=O)[C@H](O)[C@@H](NC(=O)c4ccccc4)c4ccccc4)C(C)=C1C3(C)C)[C@]1(OC(C)=O)CO[C@@H]1C[C@@H]2O [7-epi-taxol] | 80 | > 316 | 50 |  |
| CC(=O)O[C@H]1C(=O)[C@@]2(C)[C@H]([C@H](OC(=O)c3ccccc3)[C@]3(O)C[C@H](O)C(C)=C1C3(C)C)[C@]1(OC(C)=O)CO[C@@H]1C[C@@H]2O [baccatin III] | > 511 | 10 | 12 |  |
| CC(=O)O[C@H]1C(=O)[C@@]2(C)[C@H]([C@H](OC(=O)c3ccc(C(F)(F)F)cc3)[C@]3(O)C[C@H](OC(=O)[C@H](O)[C@@H](NC(=O)c4ccccc4)c4ccccc4)C(C)=C1C3(C)C)[C@]1(OC(C)=O)CO[C@@H]1C[C@@H]2O [2-debenzoyl-2-(p-trifluoromethylbenzoyl)taxol] | > 293 | > 293 | > 293 |  |
| CC(=O)O[C@@]12CO[C@@H]1C[C@H](O)[C@@]1(C)C(=O)[C@H](O)C3=C(C)[C@@H](O)C[C@@](O)([C@@H](OC(=O)c4ccccc4)[C@H]21)C3(C)C [10-deacetylbaccatin III] | > 551 | 230 | 21 |  |
| CC(=O)O[C@@]12CO[C@@H]1C[C@H](O)[C@@]1(C)C(=O)[C@H](O)C3=C(C)[C@@H](OC(=O)[C@H](O)[C@@H](NC(=O)c4ccccc4)c4ccccc4)C[C@@](O)([C@@H](OC(=O)c4ccccc4)[C@H]21)C3(C)C [10-deacetyltaxol] | 15 | > 333 | 10 |  |
| CC(=O)O[C@@]12CO[C@@H]1C[C@@H](O)[C@@]1(C)C(=O)[C@H](O)C3=C(C)[C@@H](O)C[C@@](O)([C@@H](OC(=O)c4ccccc4)[C@H]21)C3(C)C [7-epi-10-deacetylbaccatin III] | > 469 | 150 | 27 |  |
| CC(=O)O[C@H]1C(=O)[C@@]2(C)[C@H]([C@H](OC(=O)c3ccccc3)[C@]3(O)C[C@H](OC(=O)[C@H](O)[C@@H](NC(=O)c4ccccc4)c4ccccc4)C(C)=C1C3(C)C)[C@]1(OC(C)=O)CO[C@@H]1C[C@@H]2O [paclitaxel (TAXOL ®), paclitaxel] | 10 | > 316 | 7 |  |
| CC(=O)O[C@@]12CO[C@@H]1C[C@H](O[C@@H]1OC[C@@H](O)[C@H](O)[C@H]1O)[C@@]1(C)C(=O)[C@H](O)C3=C(C)[C@@H](OC(=O)[C@H](O)[C@@H](NC(=O)c4ccccc4)c4ccccc4)C[C@@](O)([C@@H](OC(=O)c4ccccc4)[C@H]21)C3(C)C [7-xylosyl-10-deacetyltaxol] | 30 | > 286 | 17 |  |
| B1 |  |  |  | Kd (BSA-paclitaxel antigen): ~10 nM; Dissociation rate constant (kd) (BSA-paclitaxel (BSA-Ag); [6]): 0.000967 s⁻¹; ka (BSA-paclitaxel (BSA-Ag); [6]): 20500 M⁻¹ s⁻¹; Kd (BSA-paclitaxel (BSA-Ag); [7]): 47.2 nM; KA (BSA-paclitaxel (BSA-Ag); [6]): 2.12e+07 M⁻¹; Rmax (BSA-paclitaxel (BSA-Ag); [6]): 15.6; Kd (BSA-paclitaxel (BSA-Ag); [8]): 47 nM; Off-rate (BSA-paclitaxel (BSA-Ag); [8]): 9.7 × 10^−4; On-rate (BSA-paclitaxel (BSA-Ag); [8]): 2.1 × 10^4; Rmax (BSA-paclitaxel (BSA-Ag); [8]): 15.6; Kd (BSA-paclitaxel [4]): 10 nM; Off-rate (BSA-paclitaxel [4]): 2.9 × 10^−4; On-rate (BSA-paclitaxel [4]): 2.8 × 10^4; Rmax (BSA-paclitaxel [4]): 54.4; Kd (BSA-paclitaxel [5]): 12 nM; Off-rate (BSA-paclitaxel [5]): 2.2 × 10^−4; On-rate (BSA-paclitaxel [5]): 1.8 × 10^4; Rmax (BSA-paclitaxel [5]): 112 |
| B2 |  |  |  | Kd (BSA-paclitaxel antigen): ~10 nM; Dissociation rate constant (kd) (BSA-paclitaxel (BSA-Ag); [6]): 0.000304 s⁻¹; ka (BSA-paclitaxel (BSA-Ag); [6]): 470000 M⁻¹ s⁻¹; Kd (BSA-paclitaxel (BSA-Ag); [7]): 0.645 nM; KA (BSA-paclitaxel (BSA-Ag); [6]): 1.55e+09 M⁻¹; Rmax (BSA-paclitaxel (BSA-Ag); [6]): 4.01; Kd (BSA-paclitaxel (BSA-Ag); [8]): 0.65 nM; Off-rate (BSA-paclitaxel (BSA-Ag); [8]): 3.0 × 10^−4; On-rate (BSA-paclitaxel (BSA-Ag); [8]): 4.7 × 10^5; Rmax (BSA-paclitaxel (BSA-Ag); [8]): 4.0; Kd (BSA-paclitaxel [4]): 1.3 nM; Off-rate (BSA-paclitaxel [4]): 2.0 × 10^−3; On-rate (BSA-paclitaxel [4]): 1.6 × 10^6; Rmax (BSA-paclitaxel [4]): 3.6; Kd (BSA-paclitaxel [5]): 3.6 nM; Off-rate (BSA-paclitaxel [5]): 8.7 × 10^−4; On-rate (BSA-paclitaxel [5]): 2.4 × 10^5; Rmax (BSA-paclitaxel [5]): 8.6 |
